Measured values as given in US20240335427A1, “SMALL MOLECULE INHIBITION OF DEUBIQUITINATING ENZYME JOSEPHIN DOMAIN CONTAINING 1 (JOSD1) AS A TARGETED THERAPY FOR LEUKEMIAS WITH MUTANT JANUS KINASE 2 (JAK2)” (DANA-FARBER CANCER INSTITUTE, INC., priority 2021, published 2024).

Experiments:
UCHL1 = UCHL1 (Homo sapiens (Human), UniProt P09936); experiment: UCHL1 biochemical inhibition (ubiquitin hydrolase activity, purified enzyme)
JOSD1 = JOSD1 (Homo sapiens (Human), UniProt Q15040); experiment: In vitro JOSD1 activity assay (biochemical IC50, purified enzyme); conditions: read-out: JOSD1 IC50
Experimental: In vitro JOSD1 activity assay & Ubiquitin-7-amido-4-methylcoumarin (AMC) assay. In vitro JOSD1 activity assay was carried out with Ubiquitin-AMC assay. […] Recombinant JOSD1 was tested for activity in a Ubiquitin-AMC assay in the presence or absence of inhibitors. […] The reaction was incubated for 6 hours at room temperature prior to the addition of 2 μM Ubiquitin-AMC (Boston Biochem) substrate. The initial rate of the reaction was measured by collecting fluorescence data at one-minute intervals over a 30-minute period using a Clariostar® fluorescence plate reader at excitation and emission wavelengths of 345 and 445 nm, respectively. The calculated initial rate values were plotted against inhibitor concentrations to determine IC50 values.
In vitro JOSD1 activity assay. Recombinant full-length JOSD1 was tested for activity in a Ubiquitin-AMC assay in the presence or absence or inhibitors. For this assay, 10 nM JOSD1 was pre-incubated with different concentrations of inhibitors or DMSO as a control in 50 mM Tris 8.0, 0.5 mM EDTA, 10 mM ovalbumin, 5 mM DTT. The reaction was incubated for 6 h at room temperature prior to the addition of 2 mM Ubiquitin-AMC (Boston Biochem) substrate. The initial rate of the reaction was measured by collecting fluorescence data at one-minute intervals over a 30-minute period using a CLARIOstar® fluorescence plate reader at excitation and emission wavelengths of 345 and 445 nm, respectively. The calculated initial rate values were plotted against inhibitor concentrations to determine IC50 values.
JOSD1 biochemical inhibition was investigated for the analogs shown using the fluorescent substrate ubiquitin-rhodamine against purified enzyme in a continuous kinetic assay.

[1] = system: JAK2-V617F-positive primary AML patient samples; experiment: AML liquid culture proliferation, primary patient samples; type: cell-based, human; conditions: 1 μM
Text: AML liquid culture proliferation and colony assay studies. Frozen vials of bone marrow from AML patients identified as harboring JAK2-V617F were previously Ficoll®-purified to obtain mononuclear cells and thawed prior to use in studies.

Chain of UCHL1 (P09936 whole entry, species assumed): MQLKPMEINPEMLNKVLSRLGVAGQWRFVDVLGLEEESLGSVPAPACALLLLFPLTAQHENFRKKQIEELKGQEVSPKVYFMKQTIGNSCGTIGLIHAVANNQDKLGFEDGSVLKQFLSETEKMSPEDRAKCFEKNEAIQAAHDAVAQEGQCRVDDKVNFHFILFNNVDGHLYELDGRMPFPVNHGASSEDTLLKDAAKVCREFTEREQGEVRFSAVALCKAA

Structure (SMILES)	IC50 (UCHL1) [µM]	IC50 (JOSD1) [µM]	efficacy against primary AML cells [1]
N#CN1CCC(C(=O)Nc2nc3ccc(C4CC4)cc3s2)C1 (stereo in doubt) [Compound 8, (R)-1-cyano-N-(6-cyclopropylbenzo[d]thiazol-2-yl)pyrrolidine-3-carboxamide]	0.012	0.099	
Cc1noc(C)c1-c1ccc2sc(NC(=O)[C@H]3CCN(C#N)C3)nc2c1 [Compound 4, (S)-1-cyano-N-(5-(3,5-dimethylisoxazol-4-yl)benzo[d]thiazol-2-yl)pyrrolidine-3-carboxamide]		0.045	
Cc1noc(C)c1-c1cccc2sc(NC(=O)[C@H]3CCN(C#N)C3)nc12 [Compound 5, (S)-1-cyano-N-(4-(3,5-dimethylisoxazol-4-yl)benzo[d]thiazol-2-yl)pyrrolidine-3-carboxamide]		0.074	
CCn1cc(-c2ccc3nc(NC(=O)[C@@H]4CCN(C#N)C4)sc3c2)cn1 [Compound 6, (R)-1-cyano-N-(6-(1-ethyl-1H-pyrazol-4-yl)benzo[d]thiazol-2-yl)pyrrolidine-3-carboxamide]		0.082	
N#CN1CC[C@H](C(=O)Nc2ccc3c(cnn3Cc3ccccc3)c2)C1 [Compound 10, (S)—N-(1-benzyl-1H-indazol-5-yl)-1-cyanopyrrolidine-3-carboxamide]		0.16	
N#CN1CC[C@H](C(=O)Nc2nc(-c3ccccc3)cs2)C1 [Compound 11, (S)-1-cyano-N-(4-phenylthiazol-2-yl)pyrrolidine-3-carboxamide]		0.16	
Cc1noc(C)c1-c1ccc2nc(NC(=O)[C@H]3CCN(C#N)C3)sc2c1 [Compound 12]	0.1	0.244	
N#CN1CC[C@@H](C(=O)Nc2nc3ccc(-c4ccc(-c5ccccc5)cc4)cc3s2)C1 [Compound 14, (R)—N-(6-([1,1′-biphenyl]-4-yl)benzo[d]thiazol-2-yl)-1-cyanopyrrolidine-3-carboxamide]		0.27	
N#CN1CC[C@H](C(=O)Nc2nc3ccc(Br)nc3s2)C1 [Compound 15, (S)—N-(5-bromothiazolo[5,4-b]pyridin-2-yl)-1-cyanopyrrolidine-3-carboxamide]	2	0.288	
Cc1cccc2sc(NC(=O)[C@H]3CCN(C#N)C3)nc12 [Compound 18, (S)-1-cyano-N-(4-methylbenzo[d]thiazol-2-yl)pyrrolidine-3-carboxamide]		0.38	
Cc1noc(C)c1-c1ccc2nc(NC(=O)[C@H]3CCN(C#N)C3)sc2n1 [Compound 19]	0.09	0.42	
N#CN1CC[C@H](NC(=O)c2nc3ccccc3s2)C1 [Compound 20]	2.06	0.43	
Cc1noc(C)c1-c1ccc2cnc(NC(=O)[C@H]3CCN(C#N)C3)cc2c1 [Compound 21]		0.46	
N#CN1CC[C@H](C(=O)Nc2nc3ccc(-c4c[nH]nc4C(F)(F)F)cc3s2)C1 [Compound 22, (S)-1-cyano-N-(6-(3-(trifluoromethyl)-1H-pyrazol-4-yl)benzo[d]thiazol-2-yl)pyrrolidine-3-carboxamide]		0.52	
Cc1noc(C)c1-c1ccc2nc(NC(=O)[C@@H]3CCN(C#N)C3)sc2c1 [Compound 24]	1.85	0.69	
N#CN1CC[C@H](C(=O)Nc2ccn(Cc3ccccc3)c2)C1 [Compound 25]	8.9	0.931	
N#CN1CCC(C(=O)Nc2nc3c(s2)CN(C(=O)c2ccccc2)CC3)C1 (centres unmarked) [Compound 26]	0.1	1.1	
N#CN1CC[C@H](C(=O)Nc2cnn(Cc3ccccc3)c2)C1 [Compound 27, (S)—N-(1-benzyl-1H-pyrazol-4-yl)-1-cyanopyrrolidine-3-carboxamide]		1.1	
N#CN1CC[C@H](C(=O)Nc2cn(-c3ccccc3)cn2)C1 [Compound 28]	0.155	1.22	

Structure (SMILES)	IC50 (UCHL1) [µM]	IC50 (JOSD1) [µM]	efficacy against primary AML cells [1]
N#CN1CC[C@@H](C(=O)Nc2cn(Cc3ccccc3)cn2)C1 [Compound 29]	2		
N#CN1CC[C@H](C(=O)Nc2nc3ccccc3[nH]2)C1 [Compound 30, (S)—N-(1H-benzo[d]imidazol-2-yl)-1-cyanopyrrolidine-3-carboxamide]	3.67	1.37	
N#CN1CC[C@H](C(=O)Nc2nc3n(n2)CCN(Cc2ccccc2)C3)C1 [Compound 31]	2.69	1.4	
N#CN1CC[C@H](C(=O)Nc2cn(Cc3ccccc3)cn2)C1 [Compound 32]	0.104		
N#CN1CC(C(=O)Nc2nc3ccc(Br)cc3s2)C1 [Compound 33, N-(6-bromobenzo[d]thiazol-2-yl)-1-cyanoazetidine-3-carboxamide]	1.83	1.95	
Cc1sc(N(C)C(=O)[C@@H]2CCCN2C#N)nc1-c1cccc(C#N)n1 [Compound 34]		2.13	
Cc1noc(C)c1-c1ccc2nc(NC(=O)C3CCN(C#N)CC3)sc2c1 [Compound 35, 1-Cyano-N-(6-(3,5-dimethylisoxazol-4-yl)benzo[d]thiazol-2-yl)piperidine-4-carboxamide]	0.42	2.77	
N#CN1CC[C@H](C(=O)Nc2nc3n(n2)CCN(C(=O)c2ccccc2)C3)C1 [Compound 36]	1.33	3.37	
N#CN1CC[C@H](C(=O)Nc2cn(C3CCCN(C(=O)c4ccccc4)C3)cn2)C1 (some centres unmarked) [Compound 38]	0.089	4.15	
N#CN1CC[C@H](C(=O)Nc2nc3ccccc3o2)C1 [Compound 39, (S)—N-(benzo[d]oxazol-2-yl)-1-cyanopyrrolidine-3-carboxamide]		4.85	
Cc1noc(C)c1-c1ccc2nc(NC(=O)[C@H]3CCN(CC#N)C3)sc2c1 [Compound 40, (S)-1-(cyanomethyl)-N-(6-(3,5-dimethylisoxazol-4-yl)benzo[d]thiazol-2-yl)pyrrolidine-3-carboxamide]	100	5.68	
N#CN1CCc2cc(NC(=O)c3nc4ccccc4s3)ccc21 [Compound 41]	100	6.07	
N#CN1CCC[C@H](C(=O)Nc2cn(Cc3ccccc3)cn2)C1 [Compound 42]	1.08	6.23	
Cc1noc(C)c1-c1ccc2nc(NC(=O)c3ccnc(C#N)n3)sc2c1 [Compound 43, 2-Cyano-N-(6-(3,5-dimethyl-1λ^3,2λ^2-isoxazol-4-yl)benzo[d]thiazol-2-yl)pyrimidine-4-carboxamide]		6.42	
C#CCNC(=O)c1ccc(-c2cnc(NC(=O)[C@H]3CCN(C#N)C3)s2)cc1 [Compound 44, (S)-1-cyano-N-(5-(4-(prop-2-yn-1-ylcarbamoyl)phenyl)thiazol-2-yl)pyrrolidine-3-carboxamide]		8.25	
N#CN1CC(CNC(=O)c2nc3ccccc3s2)C1 [Compound 46, N-((1-cyanoazetidin-3-yl)methyl)benzo[d]thiazole-2-carboxamide]	100	11.3	
Cc1noc(C)c1-c1ccc2nc(NC(=O)C3CN(C#N)C3)sc2c1 [Compound 47, 1-Cyano-N-(6-(3,5-dimethylisoxazol-4-yl)benzo[d]thiazol-2-yl)azetidine-3-carboxamide]	1.29		
N#CC[C@H](C1CCCC1)n1cc(-c2ncnc3[nH]ccc23)cn1 [ruxolitinib, reference compound]			at best modest efficacy
